#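 Each compound was tested at five concentrations against cells in 96-well plates for 48 hours. Abbreviation: GI50, concentration required for 50% inhibition of growth.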 Calls of active or inactive are those of the source. No stated cut-off is given here; in the data, active = GI50 up to about 1.1 µM and inactive = higher.
# Columns and labels:
# Test in all cases: NCI tumour cell line growth inhibition, 48 h
# HT-29 = system: HT-29
# SNB-75 = system: SNB-75
# MDA-MB-231 = system: MDA-MB-231
# PC-3 = system: PC-3
# U-251 = system: U-251
# SK-MEL-5 = system: SK-MEL-5
# IGROV-1 = system: IGROV-1
# BT-549 = system: BT-549
# HCT-15 = system: HCT-15
# NCI/ADR-RES = system: NCI/ADR-RES
# MCF7 = system: MCF7
# SK-MEL-28 = system: SK-MEL-28
# OVCAR-8 = system: OVCAR-8
# MOLT-4 = system: MOLT-4
# DU-145 = system: DU-145
# CAKI-1 = system: CAKI-1
# COLO 205 = system: COLO 205
# UO-31 = system: UO-31
# OVCAR-4 = system: OVCAR-4
# KM12 = system: KM12
# SR = system: SR
# RXF 393 = system: RXF 393
# SNB-19 = system: SNB-19
# HOP-62 = system: HOP-62
# NCI-H23 = system: NCI-H23
# SF-295 = system: SF-295
# HL-60 = system: HL-60
# MDA-N = system: MDA-N
# K562 = system: K562
# EKVX = system: EKVX
# RPMI-8226 = system: RPMI-8226
# SF-539 = system: SF-539
# OVCAR-5 = system: OVCAR-5
# ACHN = system: ACHN
# HOP-92 = system: HOP-92
# T47D = system: T47D
# SW-620 = system: SW-620
# CCRF-CEM = system: CCRF-CEM
# NCI-H522 = system: NCI-H522
# SK-MEL-2 = system: SK-MEL-2
# M14 = system: M14
# NCI-H460 = system: NCI-H460
# Hs-578T = system: Hs-578T
# SK-OV-3 = system: SK-OV-3
# UACC-257 = system: UACC-257
# A549 = system: A549
# A498 = system: A498
# NCI-H226 = system: NCI-H226
# SN12C = system: SN12C
# Malme-3M = system: Malme-3M
# 786-0 = system: 786-0
# MDA-MB-435 = system: MDA-MB-435
# OVCAR-3 = system: OVCAR-3
# SF-268 = system: SF-268
# HCT-116 = system: HCT-116
# UACC-62 = system: UACC-62
# LOX IMVI = system: LOX IMVI
# TK-10 = system: TK-10
# HCC 2998 = system: HCC 2998
structure (smiles),measurement,setting,value
CCC(c1nc2ccccc2c(=O)n1NC(=O)C(C)(C)C)C1(O)CCCCC1 (centres undefined),GI50,HT-29,> 100 µM (inactive)
same,GI50,SNB-75,> 100 µM (inactive)
same,GI50,MDA-MB-231,> 100 µM (inactive)
same,GI50,PC-3,> 100 µM (inactive)
same,GI50,U-251,> 100 µM (inactive)
same,GI50,SK-MEL-5,> 100 µM (inactive)
same,GI50,IGROV-1,> 100 µM (inactive)
same,GI50,BT-549,> 100 µM (inactive)
same,GI50,HCT-15,> 100 µM
same,GI50,NCI/ADR-RES,> 100 µM (inactive)
same,GI50,MCF7,> 100 µM (inactive)
same,GI50,SK-MEL-28,> 100 µM (inactive)
same,GI50,OVCAR-8,> 100 µM (inactive)
same,GI50,MOLT-4,80.4 µM (inactive)
same,GI50,DU-145,> 100 µM (inactive)
same,GI50,CAKI-1,> 100 µM (inactive)
same,GI50,COLO 205,> 100 µM (inactive)
same,GI50,UO-31,> 100 µM (inactive)
same,GI50,OVCAR-4,> 100 µM (inactive)
same,GI50,KM12,> 100 µM (inactive)
same,GI50,SR,> 100 µM (inactive)
same,GI50,RXF 393,> 100 µM (inactive)
same,GI50,SNB-19,> 100 µM (inactive)
same,GI50,HOP-62,> 100 µM (inactive)
same,GI50,NCI-H23,> 100 µM (inactive)
same,GI50,SF-295,> 100 µM (inactive)
same,GI50,HL-60,> 100 µM (inactive)
same,GI50,MDA-N,> 100 µM (inactive)
same,GI50,K562,> 100 µM (inactive)
same,GI50,EKVX,> 100 µM (inactive)
same,GI50,RPMI-8226,> 100 µM (inactive)
same,GI50,SF-539,> 100 µM (inactive)
same,GI50,OVCAR-5,> 100 µM (inactive)
same,GI50,ACHN,> 100 µM (inactive)
same,GI50,HOP-92,> 100 µM (inactive)
same,GI50,T47D,> 100 µM (inactive)
same,GI50,SW-620,> 100 µM (inactive)
same,GI50,CCRF-CEM,99.5 µM (inactive)
same,GI50,NCI-H522,67.8 µM (inactive)
same,GI50,SK-MEL-2,> 100 µM (inactive)
same,GI50,M14,> 100 µM (inactive)
same,GI50,NCI-H460,> 100 µM (inactive)
same,GI50,Hs-578T,> 100 µM (inactive)
same,GI50,SK-OV-3,> 100 µM (inactive)
same,GI50,UACC-257,> 100 µM (inactive)
same,GI50,A549,> 100 µM (inactive)
same,GI50,A498,> 100 µM (inactive)
same,GI50,NCI-H226,> 100 µM (inactive)
same,GI50,SN12C,> 100 µM (inactive)
same,GI50,Malme-3M,> 100 µM (inactive)
same,GI50,786-0,> 100 µM (inactive)
same,GI50,MDA-MB-435,> 100 µM (inactive)
same,GI50,OVCAR-3,> 100 µM (inactive)
same,GI50,SF-268,> 100 µM (inactive)
same,GI50,HCT-116,> 100 µM (inactive)
same,GI50,UACC-62,> 100 µM (inactive)
O=C(OCc1ccccc1)N1CCNCCN(C(=O)OCc2ccccc2)CCNCC1,GI50,HT-29,17.7 µM (inactive)
same,GI50,SNB-75,25.6 µM (inactive)
same,GI50,MDA-MB-231,1.82 µM (inactive)
same,GI50,PC-3,25.9 µM (inactive)
same,GI50,U-251,22 µM (inactive)
same,GI50,SK-MEL-5,13.4 µM (inactive)
same,GI50,IGROV-1,32.2 µM (inactive)
same,GI50,BT-549,45.6 µM (inactive)
same,GI50,HCT-15,32.5 µM
same,GI50,NCI/ADR-RES,75.7 µM (inactive)
same,GI50,MCF7,17.7 µM (inactive)
same,GI50,SK-MEL-28,19.5 µM (inactive)
same,GI50,OVCAR-8,55.1 µM (inactive)
same,GI50,MOLT-4,18 µM (inactive)
same,GI50,DU-145,95.7 µM (inactive)
same,GI50,CAKI-1,15 µM (inactive)
same,GI50,UO-31,7.03 µM (inactive)
same,GI50,LOX IMVI,13.2 µM (inactive)
same,GI50,OVCAR-4,40.4 µM (inactive)
same,GI50,KM12,26 µM (inactive)
same,GI50,SR,86.1 µM (inactive)
same,GI50,RXF 393,52.8 µM (inactive)
same,GI50,SNB-19,47.5 µM (inactive)
same,GI50,HOP-62,16.9 µM (inactive)
same,GI50,TK-10,91.8 µM (inactive)
same,GI50,SF-295,23.9 µM (inactive)
same,GI50,HL-60,24.3 µM (inactive)
same,GI50,MDA-N,15.6 µM (inactive)
same,GI50,K562,25.5 µM (inactive)
same,GI50,EKVX,28 µM (inactive)
same,GI50,RPMI-8226,20.2 µM (inactive)
same,GI50,SF-539,14.6 µM (inactive)
same,GI50,OVCAR-5,32.2 µM (inactive)
same,GI50,ACHN,50.4 µM (inactive)
same,GI50,HOP-92,21.1 µM (inactive)
same,GI50,T47D,0.254 µM (active)
same,GI50,SW-620,32.1 µM (inactive)
same,GI50,CCRF-CEM,36.5 µM (inactive)
same,GI50,NCI-H522,16.3 µM (inactive)
same,GI50,SK-MEL-2,20.1 µM (inactive)
same,GI50,NCI-H460,21.6 µM (inactive)
same,GI50,Hs-578T,21.2 µM (inactive)
same,GI50,SK-OV-3,49.8 µM (inactive)
same,GI50,UACC-257,21.4 µM (inactive)
same,GI50,A549,63.2 µM (inactive)
same,GI50,A498,27.5 µM (inactive)
same,GI50,NCI-H226,36.9 µM (inactive)
same,GI50,SN12C,39.4 µM (inactive)
same,GI50,786-0,18.3 µM (inactive)
same,GI50,MDA-MB-435,24 µM (inactive)
same,GI50,OVCAR-3,35.4 µM (inactive)
same,GI50,HCT-116,16.2 µM (inactive)
same,GI50,UACC-62,27.5 µM (inactive)
CN(C(=O)C12C3C4C1C1C2C3C41C(=O)O)C(C)(C)C (centres undefined),GI50,HT-29,> 100 µM (inactive)
same,GI50,SNB-75,> 100 µM (inactive)
same,GI50,MDA-MB-231,> 100 µM (inactive)
same,GI50,PC-3,> 100 µM (inactive)
same,GI50,U-251,> 100 µM (inactive)
same,GI50,SK-MEL-5,> 100 µM (inactive)
same,GI50,IGROV-1,> 100 µM (inactive)
same,GI50,BT-549,> 100 µM (inactive)
same,GI50,HCT-15,> 100 µM
same,GI50,NCI/ADR-RES,> 100 µM (inactive)
same,GI50,MCF7,> 100 µM (inactive)
same,GI50,SK-MEL-28,> 100 µM (inactive)
same,GI50,OVCAR-8,> 100 µM (inactive)
same,GI50,MOLT-4,> 100 µM (inactive)
same,GI50,DU-145,> 100 µM (inactive)
same,GI50,CAKI-1,> 100 µM (inactive)
same,GI50,COLO 205,> 100 µM (inactive)
same,GI50,UO-31,> 100 µM (inactive)
same,GI50,LOX IMVI,> 100 µM (inactive)
same,GI50,OVCAR-4,> 100 µM (inactive)
same,GI50,KM12,> 100 µM (inactive)
same,GI50,SR,> 100 µM (inactive)
same,GI50,RXF 393,> 100 µM (inactive)
same,GI50,SNB-19,> 100 µM (inactive)
same,GI50,HOP-62,> 100 µM (inactive)
same,GI50,TK-10,> 100 µM (inactive)
same,GI50,NCI-H23,> 100 µM (inactive)
same,GI50,SF-295,> 100 µM (inactive)
same,GI50,HL-60,> 100 µM (inactive)
same,GI50,MDA-N,> 100 µM (inactive)
same,GI50,K562,> 100 µM (inactive)
same,GI50,EKVX,> 100 µM (inactive)
same,GI50,SF-539,> 100 µM (inactive)
same,GI50,OVCAR-5,> 100 µM (inactive)
same,GI50,ACHN,> 100 µM (inactive)
same,GI50,HOP-92,> 100 µM (inactive)
same,GI50,T47D,> 100 µM (inactive)
same,GI50,SW-620,> 100 µM (inactive)
same,GI50,CCRF-CEM,> 100 µM (inactive)
same,GI50,NCI-H522,> 100 µM (inactive)
same,GI50,SK-MEL-2,> 100 µM (inactive)
same,GI50,M14,> 100 µM (inactive)
same,GI50,NCI-H460,> 100 µM (inactive)
same,GI50,Hs-578T,> 100 µM (inactive)
same,GI50,UACC-257,> 100 µM (inactive)
same,GI50,HCC 2998,> 100 µM (inactive)
same,GI50,A549,> 100 µM (inactive)
same,GI50,A498,> 100 µM (inactive)
same,GI50,SN12C,> 100 µM (inactive)
same,GI50,786-0,> 100 µM (inactive)
same,GI50,MDA-MB-435,> 100 µM (inactive)
same,GI50,OVCAR-3,> 100 µM (inactive)
same,GI50,SF-268,> 100 µM (inactive)
same,GI50,HCT-116,> 100 µM (inactive)
same,GI50,UACC-62,> 100 µM (inactive)
